# According to patent publication US11884710B2, “Peptide compounds and methods of use in wound healing” (priority 2013, dated 2024):
# Square brackets hold non-standard residues; d marks the D form. Ends that are not written are not given here. PEG2 = NCCOCCOCCC(=O)O
# Assays:
# [1] = test system: P. aeruginosa (ATCC 27853); experiment: Mouse model of Pseudomonas (bacterial) keratitis; type: in vivo
# Description: A circular wound was created on the mouse cornea by removing the epithelium and infected with 10^5 colony forming units (CFU) of P. aeruginosa (ATCC® 27853™ (American Type Culture Collection, Manassas, Va.)). Infected wounds were treated with saline (0.9% sodium chloride, vehicle control) or saline containing indicated concentrations of peptide every 15 minutes for 2 hours, then every 30 minutes for 3 hours on the first day. Infected wounds were treated twice on the second day and once on the third day. Mice were killed at 48 hours post-infection, and CFU/eye were quantified. The means were plotted and are representative of 5 to 9 mice per group. Mann Whitney test was performed for each group as compared to the saline control group. *P=0.014. In compound names such as BCC02-5RMP used herein, “R” represents arginine, and “MP” represents a small PEG molecule as defined elsewhere herein (such as, for example but not by way of limitation, “AEEP”).
# (§1) A circular wound was created on the mouse cornea by removing the epithelium, and the wound was infected with 10^5 CFU of P. aeruginosa (ATCC® 27853™ (American Type Culture Collection, Manassas, Va.)). Infected wounds were treated with saline or saline containing indicated concentrations (2, 5, 10, and 20 mg/ml) of peptide every 30 minutes for 6 hours on the first day. Infected wounds were treated twice on the second day and once on the third day. Mice were killed at 48 hours post-infection, and the CFU/eye were quantified. The means are plotted and are representative of 5 mice per group. Mann Whitney test was performed for each group as compared to the saline control group. *P=0.015 and **P=0.097.
# as §1, with “representative of 4 to 5 mice” for “representative of 5 mice”, “control group.” for “control group. *P=0.015 and **P=0.097.”
# as §1, with “group. **P=0.0079 by” for “group.”, “test” for “test was performed for each group”, “group.” for “group. *P=0.015 and **P=0.097.”
# A circular wound (2 mm) was created on the mouse cornea by removing the epithelium and infecting the wound with 10^5 CFU of P. aeruginosa (ATCC® 27853™ (American Type Culture Collection, Manassas, Va.)). Infected wounds were treated with saline or saline containing indicated concentrations of peptide every 15 minutes for 2 hours, then every 30 minutes for 3 hours on the first day. […] Mice were killed at 48 hours post-infection, and the colony forming units per eye (CFU/eye) were quantified. […]
# [2] = test system: Pseudomonas aeruginosa ATCC 27853; experiment: In vitro bactericidal assay, P. aeruginosa ATCC 27853 (FIGS. 12-14); type: cell-based; conditions: FIG. 14; pH 5.5; 180 minutes; even at the lower concentration (75 μg/ml)
# Description: (§2) Each of the test peptides was used at 25, 12.5 6.25, and 3.12 μM. The gentamicin was used at 4 μg/ml. 1×10^6/ml Pseudomonas aeruginosa ATCC® 27853™ (American Type Culture Collection, Manassas, Va.) were incubated with the peptides, negative buffer control (tryptone saline), and positive control gentamicin for 180 minutes at pH 7.2. 50 μl aliquots were plated out on agar plates and incubated overnight. Colony forming units were counted after overnight incubation and CFU/ml calculated.
# as §2, with “12.5,” for “12.5”, “5.5.” for “7.2.”
# FIG. 14 is a comparison of bactericidal activity of CAP37 peptides 120-146WR (SEQ ID NO:30), 120-146WH (SEQ ID NO:31), 120-146QR (SEQ ID NO:28), 120-146QH (SEQ ID NO:29), 120-146QR-5RMP (SEQ ID NO:32), and 120-146QH-5RMP (SEQ ID NO:33) for Pseudomonas aeruginosa ATCC® 27853™ (American Type Culture Collection, Manassas, Va.). 1×10^6/ml Pseudomonas aeruginosa ATCC® 27853™ were incubated with the peptides at 150, 75, and 37.5 μg/ml and negative buffer control (tryptone saline) for 180 minutes at pH 5.5. 50 μl aliquots were plated out on agar plates and incubated overnight. Colony forming units were counted after overnight incubation and CFU/ml calculated.
# For FIGS. 10-13, in vitro bactericidal assays were performed using a starting inoculum of 1×10^6 CFU/ml of the bacterial suspension. The CFU remaining at the end of the 60-180 minute incubation was determined, and the data was plotted as log reduction in CFU/ml.
# In particular, each of the test peptides (CAP37 peptides 120-146WR, 120-146WH, and 95-122 (SEQ ID NOS:30, 31, and 26, respectively)) was used at 25, 12.5, 6.25, and 3.12 μM. Gentamicin was used at 4 μg/ml. 1×10^6/ml Acinetobacter baumannii ATCC® BAA-747™ or Pseudomonas aeruginosa ATCC® 27853™ (American Type Culture Collection, Manassas, Va.) were incubated with the peptides, negative buffer control (tryptone saline), and positive control gentamicin at pH 5.5 or 7.2. A 60 minute incubation was used for Acinetobacter baumannii ATCC® BAA-747™, while a 180 minute incubation was used for Pseudomonas aeruginosa ATCC® 27853™. 50 μl aliquots were plated out on agar plates and incubated overnight. Colony forming units were counted after overnight incubation and CFU/ml calculated.
# For FIG. 14, 1×10^6/ml Pseudomonas aeruginosa ATCC® 27853™ were incubated with each of the test peptides (CAP37 peptides 120-146WR, 120-146WH, 120-146QR, 120-146QH, 120-146QR-5RMP, and 120-146QH-5RMP (SEQ ID NOS:30, 31, 28, 29, 32, and 33, respectively)) at 150, 75, and 37.5 μg/ml, or negative buffer control (tryptone saline), for 180 minutes at pH 5.5. 50 μl aliquots were plated out on agar plates and incubated overnight. Colony forming units were counted after overnight incubation and CFU/ml calculated.
substance,measurement,setting,value
(AEEP)-(AEEP)-RRRRGTRCQVAGWGSQRSGGRLSRFPRFVNVR ([PEG2][PEG2]RRRRGTRCQVAGWGSQRSGGRLSRFPRFVNVR) [120-146QR-5RMP],mice with no viable bacteria in the eye after treatment,[1]; the 10 and 20 mg/ml groups together,Six of the 10 mice
same,"CFU/eye vs saline, in words","[1]; topical doses of 10 and 20 mg/ml, 48 hours post-infection",significantly reduced the CFU/eye
same,reduction in CFU,[2],~6 log
